Mutagenic call data for seven compounds are collected here from PubChem BioAssay AID1259407 (Chemical Carcinogenesis Research Information System (CCRIS), 2018).

Active and inactive are the calls of the source. No rule for the calls is given here.

The subject of the series is CCRIS mutagenicity, Ames/micronucleus/aberration tests. In words: CCRIS mutagenicity studies.
Where [1] appears, read: Test System: AMES SALMONELLA TYPHIMURIUM, Strain/Indicator: TA97A, Metabolic Activation: NONE, Method: STANDARD PLATE.
[2] abbreviates: Test System: AMES SALMONELLA TYPHIMURIUM, Strain/Indicator: TA98, Metabolic Activation: NONE, Method: STANDARD PLATE.
Setting [3] is: Test System: AMES SALMONELLA TYPHIMURIUM, Strain/Indicator: TA98, Metabolic Activation: RAT, LIVER, S-9, AROCLOR 1254, Method: STANDARD PLATE.
Where [4] appears, read: Test System: AMES SALMONELLA TYPHIMURIUM, Strain/Indicator: TA100, Metabolic Activation: NONE, Method: STANDARD PLATE.
[5] abbreviates: Test System: AMES SALMONELLA TYPHIMURIUM, Strain/Indicator: TA100, Metabolic Activation: RAT, LIVER, S-9, AROCLOR 1254, Method: STANDARD PLATE.
Where [6] appears, read: Test System: AMES SALMONELLA TYPHIMURIUM, Strain/Indicator: TA102, Metabolic Activation: NONE, Method: STANDARD PLATE.
The mark [7] stands for this setting: Test System: AMES SALMONELLA TYPHIMURIUM, Strain/Indicator: TA1535, Metabolic Activation: NONE, Method: STANDARD PLATE.
Setting [8] is: Test System: AMES SALMONELLA TYPHIMURIUM, Strain/Indicator: TA1535, Metabolic Activation: RAT, LIVER, S-9, AROCLOR 1254, Method: STANDARD PLATE.
Where [9] appears, read: Test System: AMES SALMONELLA TYPHIMURIUM, Strain/Indicator: TA1537, Metabolic Activation: NONE, Method: STANDARD PLATE.
Where [10] appears, read: Test System: AMES SALMONELLA TYPHIMURIUM, Strain/Indicator: TA1537, Metabolic Activation: RAT, LIVER, S-9, AROCLOR 1254, Method: STANDARD PLATE.
Where [11] appears, read: Test System: AMES SALMONELLA TYPHIMURIUM, Strain/Indicator: TA1538, Metabolic Activation: NONE, Method: STANDARD PLATE.
Setting [12] is: Test System: AMES SALMONELLA TYPHIMURIUM, Strain/Indicator: TA1538, Metabolic Activation: RAT, LIVER, S-9, AROCLOR 1254, Method: STANDARD PLATE.
Where [13] appears, read: Test System: MOUSE LYMPHOMA, Strain/Indicator: L5178Y (TK+/TK-), Metabolic Activation: NONE, Method: SUSPENSION/PLATE.

For the compound `Cc1c(F)c(N2CCNC(C)C2)cc2c1c(=O)c(C(=O)O)cn2C1CC1` (configuration not stated), the mutagenic call is, setting by setting: (Test System: AMES SALMONELLA TYPHIMURIUM, Strain/Indicator: TA98, Metabolic Activation: NONE, Method: PREINCUBATION) “inactive; negative”; (Test System: AMES SALMONELLA TYPHIMURIUM, Strain/Indicator: TA98, Metabolic Activation: RAT, LIVER, S-9, PHENOBARBITAL AND 5,6-BENZOFLAVONE, Method: PREINCUBATION) “inactive; negative”; (Test System: AMES SALMONELLA TYPHIMURIUM, Strain/Indicator: TA100, Metabolic Activation: NONE, Method: PREINCUBATION) “inactive; negative”; (Test System: AMES SALMONELLA TYPHIMURIUM, Strain/Indicator: TA100, Metabolic Activation: RAT, LIVER, S-9, PHENOBARBITAL AND 5,6-BENZOFLAVONE, Method: PREINCUBATION) “inactive; negative”; (Test System: AMES SALMONELLA TYPHIMURIUM, Strain/Indicator: TA1535, Metabolic Activation: NONE, Method: PREINCUBATION) “inactive; negative”; (Test System: AMES SALMONELLA TYPHIMURIUM, Strain/Indicator: TA1535, Metabolic Activation: RAT, LIVER, S-9, PHENOBARBITAL AND 5,6-BENZOFLAVONE, Method: PREINCUBATION) “inactive; negative”. Besides, the mutagenic call (Test System: AMES SALMONELLA TYPHIMURIUM, Strain/Indicator: TA1537, Metabolic Activation: NONE, Method: PREINCUBATION) was “inactive; negative”; the mutagenic call (Test System: AMES SALMONELLA TYPHIMURIUM, Strain/Indicator: TA1537, Metabolic Activation: RAT, LIVER, S-9, PHENOBARBITAL AND 5,6-BENZOFLAVONE, Method: PREINCUBATION) was “inactive; negative”; the mutagenic call (Test System: CHINESE HAMSTER V-79, Strain/Indicator: V-79 (HGPRT)/6-THIOGUANINE, Metabolic Activation: NONE) is “inactive; negative”; the mutagenic call (Test System: CHINESE HAMSTER V-79, Strain/Indicator: V-79 (HGPRT)/6-THIOGUANINE, Metabolic Activation: RAT, LIVER, S-9, PHENOBARBITAL AND 5,6-BENZOFLAVONE) was “inactive; negative”; the mutagenic call (Test System: E. COLI, Strain/Indicator: WP2 UVRA, Metabolic Activation: NONE, Method: PREINCUBATION) is “inactive; negative”; the mutagenic call (Test System: E. COLI, Strain/Indicator: WP2 UVRA, Metabolic Activation: RAT, LIVER, S-9, PHENOBARBITAL AND 5,6-BENZOFLAVONE, Method: PREINCUBATION) is “inactive; negative”.
In the case of `Cn1cnc2c1c(=O)[nH]c(=O)n2C`, the mutagenic call is “inactive; negative” under setting [1]; “inactive; negative” (Test System: AMES SALMONELLA TYPHIMURIUM, Strain/Indicator: TA97A, Metabolic Activation: RAT LIVER S-9, Method: STANDARD PLATE); “inactive; negative” under setting [2]; “inactive; negative” under setting [3]; “inactive; negative” under setting [4]; “inactive; negative” (Test System: AMES SALMONELLA TYPHIMURIUM, Strain/Indicator: TA100, Metabolic Activation: RAT LIVER S-9, Method: STANDARD PLATE). For the same compound, the mutagenic call is “inactive; negative” under setting [5]; “inactive; negative” under setting [6]; “inactive; negative” (Test System: AMES SALMONELLA TYPHIMURIUM, Strain/Indicator: TA102, Metabolic Activation: RAT LIVER S-9, Method: STANDARD PLATE); “inactive; negative” (Test System: AMES SALMONELLA TYPHIMURIUM, Strain/Indicator: TA104, Metabolic Activation: NONE, Method: STANDARD PLATE); “inactive; negative” (Test System: AMES SALMONELLA TYPHIMURIUM, Strain/Indicator: TA104, Metabolic Activation: RAT LIVER S-9, Method: STANDARD PLATE); “inactive; negative” under setting [7]. The mutagenic call was “inactive; negative” under setting [8]; “inactive; negative” under setting [9]; “inactive; negative” under setting [10]; “inactive; negative” under setting [11]; “inactive; negative” under setting [12]; “active; positive” under setting [13]. Where the note is “Test System: MOUSE LYMPHOMA, Strain/Indicator: L5178Y (TK+/TK-), Metabolic Activation: RAT, LIVER, S-9, AROCLOR 1254, Method: STANDARD PLATE”, the mutagenic call was “active; positive”.
`Cc1ccc2cc(C)c3c4c(ccc3c2c1)[C@H](O)[C@@H](O)[C@H]1O[C@@H]41`: the mutagenic call under setting [4] was “active; positive”.
For `Oc1cccc2c1sc1ccccc12`, the mutagenic call (Test System: CHINESE HAMSTER OVARY, Strain/Indicator: CHO-K1-BH4 (HGPRT)/6-THIOGUANINE, Metabolic Activation: RAT, LIVER, S-9, AROCLOR (4%)) is “active; positive”.
As to `COC(=O)c1cc2c(c3c1ccc1c(OC)cccc13)OCO2`, the mutagenic call by setting is: under setting [2], “active; positive”; under setting [4], “active; positive”; under setting [6], “active; positive”; under setting [9], “active; positive”; (Test System: AMES SALMONELLA TYPHIMURIUM, Strain/Indicator: TM677/8-AZAGUANINE, Metabolic Activation: NONE, Method: SUSPENSION/PLATE) “inactive; negative”.
Take `O=C(O)c1cc(O)c2c(c1)C(=O)c1cccc(O)c1C2=O`: the mutagenic call under setting [1] was “inactive; negative”; the mutagenic call (Test System: AMES SALMONELLA TYPHIMURIUM, Strain/Indicator: TA97A, Metabolic Activation: RAT, LIVER, S-9, AROCLOR 1254, Method: STANDARD PLATE) was “inactive; negative”; the mutagenic call under setting [2] was “inactive; negative”; the mutagenic call under setting [3] is “inactive; negative”; the mutagenic call under setting [4] is “inactive; negative”; the mutagenic call under setting [5] was “inactive; negative”. Besides, the mutagenic call was “inactive; negative” under setting [6]; “inactive; negative” (Test System: AMES SALMONELLA TYPHIMURIUM, Strain/Indicator: TA102, Metabolic Activation: RAT, LIVER, S-9, AROCLOR 1254, Method: STANDARD PLATE); “inactive; negative” under setting [7]; “inactive; negative” under setting [8]; “inactive; negative” under setting [9]; “inactive; negative” under setting [10]. In addition, the mutagenic call under setting [11] is “inactive; negative”; the mutagenic call under setting [12] is “inactive; negative”; the mutagenic call (Test System: Ames Salmonella typhimurium, Strain/Indicator: TA102, Metabolic Activation: None, Method: Preincubation) was “active; positive”; the mutagenic call (Test System: Ames Salmonella typhimurium, Strain/Indicator: TA102, Metabolic Activation: Rat, Liver, S-9, Aroclor 1254 in 0.154 M KCl, Method: Preincubation) is “active; positive”; the mutagenic call under setting [13] is “inactive; negative”; the mutagenic call (Test System: MOUSE LYMPHOMA, Strain/Indicator: L5178Y (TK+/TK-), Metabolic Activation: RAT, LIVER, S-9, AROCLOR 1254, Method: SUSPENSION/PLATE) was “inactive; negative”.
For the compound `NC(Cc1ccc(Cl)cc1)C(=O)O` (configuration not stated), the mutagenic call is “inactive; negative” (Test System: AMES SALMONELLA TYPHIMURIUM, Strain/Indicator: TA98, Metabolic Activation: NONE); “inactive; negative” (Test System: AMES SALMONELLA TYPHIMURIUM, Strain/Indicator: TA100, Metabolic Activation: NONE); “inactive; negative” (Test System: AMES SALMONELLA TYPHIMURIUM, Strain/Indicator: TA1535, Metabolic Activation: NONE); “inactive; negative” (Test System: AMES SALMONELLA TYPHIMURIUM, Strain/Indicator: TA1537, Metabolic Activation: NONE); “inactive; negative” (Test System: B. SUBTILIS, Strain/Indicator: BD190 REC, Metabolic Activation: NONE, Method: SPOT TEST); “inactive; negative” (Test System: E.COLI, Strain/Indicator: WP6 POLA, Metabolic Activation: NONE, Method: SPOT TEST).
